Data set [1] in a line: Rat PK study of P-1496 free base, arginine and lysine complex. It counts as in vivo, Sprague-Dawley rats. Conditions: for AUC∞/dose / Cmax/dose: Table 10B, rats; for biopharmaceutical properties, comparison in words: rat PK, relative to P-1496 free base. The arrangement: AUC∞/dose: unit not given here. The procedure: A PK study was carried out in Sprague-Dawley rats on the arginine or lysine complex of propane-1-sulfonic acid {2,4-difluoro-3-[5-(2-methoxy-pyrimidin-5-yl)-1H-pyrrolo[2,3-b]pyridine-3-carbonyl]-phenyl}-amide P-1496 (Murigenics, Berkeley, Calif.), dosing via […], with sampling of approximately 250 μL of blood via jugular veing in Lithium heparin tubes at 30 minutes, 1, 3, 6, 8, 12, 24, 36 and 48 hours. Blood samples were centrifuged at 4° C. for 10 minutes at RCF of 1,000, plasma was stored at […] and shipped frozen for analytical analysis (Integrated Analytical Solutions, Inc., Berkeley, Calif.).
Solid formulations were taken up in PEG400:water at 200 mg/cc for free base, arginine, and lysine complexes, and also at 400 mg/cc for lysine complex and dosed by oral gavage 10 mL/kg to provide the P-1496 doses indicated in Table 10B.

Data set [2] has as its target B-Raf (Homo sapiens, UniProt P15056). Nature of the data set: Kinase activity assay, B-Raf. The data set is classed as biochemical. The conditions noted are these: read-out: activity toward kinase B-Raf, IC50.
Data set [3] has as its target B-Raf V600E (Homo sapiens, UniProt P15056, V600E). Nature of the data set: Kinase activity assay, B-Raf V600E. The data set is classed as biochemical. Conditions: read-out: activity toward kinase B-Raf V600E, IC50.
Data set [4] deals with Btk (Homo sapiens, UniProt Q06187). In words: Kinase activity assay, Btk.
Data set [5] concerns the target Fms (Homo sapiens, UniProt P07333). Nature of the data set: Kinase activity assay, Fms.
Data set [6] deals with Kdr (Homo sapiens, UniProt P35968). In words: Kinase activity assay, Kdr.
Chain of Kdr (P35968 20-1356): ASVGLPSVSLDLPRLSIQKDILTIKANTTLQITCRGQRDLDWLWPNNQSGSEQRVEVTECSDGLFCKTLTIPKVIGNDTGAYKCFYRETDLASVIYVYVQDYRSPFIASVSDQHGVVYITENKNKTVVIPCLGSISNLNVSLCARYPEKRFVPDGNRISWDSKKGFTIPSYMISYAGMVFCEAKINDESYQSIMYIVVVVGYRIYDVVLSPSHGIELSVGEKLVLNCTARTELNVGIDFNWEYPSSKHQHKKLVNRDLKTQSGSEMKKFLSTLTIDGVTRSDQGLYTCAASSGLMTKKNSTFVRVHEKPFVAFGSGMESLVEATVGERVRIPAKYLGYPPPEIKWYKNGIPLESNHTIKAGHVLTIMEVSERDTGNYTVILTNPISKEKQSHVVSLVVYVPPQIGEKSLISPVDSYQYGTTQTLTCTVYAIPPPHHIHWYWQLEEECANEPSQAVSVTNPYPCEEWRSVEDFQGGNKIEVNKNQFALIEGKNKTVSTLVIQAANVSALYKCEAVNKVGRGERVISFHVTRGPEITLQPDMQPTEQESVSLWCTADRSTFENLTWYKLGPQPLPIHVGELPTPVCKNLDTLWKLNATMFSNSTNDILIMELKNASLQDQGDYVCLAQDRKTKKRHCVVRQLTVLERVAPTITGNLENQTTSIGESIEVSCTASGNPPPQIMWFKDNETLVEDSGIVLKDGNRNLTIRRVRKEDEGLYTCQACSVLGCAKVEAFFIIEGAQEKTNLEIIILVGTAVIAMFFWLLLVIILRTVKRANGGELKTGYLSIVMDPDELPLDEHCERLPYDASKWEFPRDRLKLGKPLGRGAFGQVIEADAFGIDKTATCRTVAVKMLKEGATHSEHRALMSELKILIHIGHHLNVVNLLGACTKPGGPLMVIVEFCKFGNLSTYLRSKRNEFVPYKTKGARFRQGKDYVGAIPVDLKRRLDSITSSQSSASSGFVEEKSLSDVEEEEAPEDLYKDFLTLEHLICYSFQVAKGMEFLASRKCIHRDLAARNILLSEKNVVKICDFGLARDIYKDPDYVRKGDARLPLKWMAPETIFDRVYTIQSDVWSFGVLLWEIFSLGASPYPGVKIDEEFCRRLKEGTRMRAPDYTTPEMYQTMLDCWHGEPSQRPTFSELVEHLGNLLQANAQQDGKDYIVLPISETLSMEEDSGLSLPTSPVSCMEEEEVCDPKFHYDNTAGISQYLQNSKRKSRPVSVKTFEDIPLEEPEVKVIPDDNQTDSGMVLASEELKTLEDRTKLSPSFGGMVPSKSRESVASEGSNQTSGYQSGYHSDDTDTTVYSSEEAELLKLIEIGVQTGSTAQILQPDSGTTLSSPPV
For data set [7], the target named is Kit (Homo sapiens, UniProt P10721). Nature of the data set: Kinase activity assay, Kit.
Chain of Kit (P10721 26-976): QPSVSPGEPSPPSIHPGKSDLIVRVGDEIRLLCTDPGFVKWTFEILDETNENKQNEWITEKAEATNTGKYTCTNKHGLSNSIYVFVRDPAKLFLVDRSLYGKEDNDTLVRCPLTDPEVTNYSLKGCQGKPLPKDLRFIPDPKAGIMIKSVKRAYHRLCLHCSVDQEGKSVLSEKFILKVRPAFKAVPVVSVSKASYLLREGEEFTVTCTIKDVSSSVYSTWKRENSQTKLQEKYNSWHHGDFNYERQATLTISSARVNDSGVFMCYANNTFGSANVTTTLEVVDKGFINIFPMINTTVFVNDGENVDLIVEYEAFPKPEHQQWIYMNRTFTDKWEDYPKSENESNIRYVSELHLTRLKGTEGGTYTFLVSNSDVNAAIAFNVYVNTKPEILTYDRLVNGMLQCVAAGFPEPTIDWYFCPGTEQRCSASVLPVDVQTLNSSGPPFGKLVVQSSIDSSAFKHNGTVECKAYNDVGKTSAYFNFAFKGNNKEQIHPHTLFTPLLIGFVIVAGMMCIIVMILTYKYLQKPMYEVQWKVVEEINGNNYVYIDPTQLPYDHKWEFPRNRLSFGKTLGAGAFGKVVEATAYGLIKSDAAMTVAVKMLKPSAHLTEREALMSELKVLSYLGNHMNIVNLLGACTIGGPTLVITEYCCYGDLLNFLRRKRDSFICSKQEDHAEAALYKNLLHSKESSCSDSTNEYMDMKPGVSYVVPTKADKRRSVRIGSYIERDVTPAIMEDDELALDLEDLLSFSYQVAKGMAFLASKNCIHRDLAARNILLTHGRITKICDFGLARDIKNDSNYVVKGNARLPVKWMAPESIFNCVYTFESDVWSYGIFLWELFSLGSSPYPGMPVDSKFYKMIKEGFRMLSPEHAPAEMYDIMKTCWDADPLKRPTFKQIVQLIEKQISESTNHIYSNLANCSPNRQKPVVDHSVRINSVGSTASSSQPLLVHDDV
For data set [8], the target named is Src (Homo sapiens, UniProt P12931). Nature of the data set: Kinase activity assay, Src.
Chain of Src (P12931 whole entry): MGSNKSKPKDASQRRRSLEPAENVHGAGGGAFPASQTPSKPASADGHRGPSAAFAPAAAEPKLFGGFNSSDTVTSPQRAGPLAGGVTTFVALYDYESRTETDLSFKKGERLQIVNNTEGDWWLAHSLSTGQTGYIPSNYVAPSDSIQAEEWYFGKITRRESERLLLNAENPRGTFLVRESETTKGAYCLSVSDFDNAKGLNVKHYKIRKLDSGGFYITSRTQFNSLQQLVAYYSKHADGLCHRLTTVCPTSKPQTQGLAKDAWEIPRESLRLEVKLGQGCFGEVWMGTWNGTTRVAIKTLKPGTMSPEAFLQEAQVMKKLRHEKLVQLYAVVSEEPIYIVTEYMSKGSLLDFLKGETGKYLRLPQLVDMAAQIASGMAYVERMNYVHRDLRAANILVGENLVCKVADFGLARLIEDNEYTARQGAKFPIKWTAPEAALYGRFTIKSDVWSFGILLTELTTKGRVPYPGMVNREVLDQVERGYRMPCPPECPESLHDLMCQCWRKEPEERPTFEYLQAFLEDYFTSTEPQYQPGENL
Data set [9] concerns the target T1, TEC (Homo sapiens, UniProt P42680).
T1 sequence (P42680 1-631): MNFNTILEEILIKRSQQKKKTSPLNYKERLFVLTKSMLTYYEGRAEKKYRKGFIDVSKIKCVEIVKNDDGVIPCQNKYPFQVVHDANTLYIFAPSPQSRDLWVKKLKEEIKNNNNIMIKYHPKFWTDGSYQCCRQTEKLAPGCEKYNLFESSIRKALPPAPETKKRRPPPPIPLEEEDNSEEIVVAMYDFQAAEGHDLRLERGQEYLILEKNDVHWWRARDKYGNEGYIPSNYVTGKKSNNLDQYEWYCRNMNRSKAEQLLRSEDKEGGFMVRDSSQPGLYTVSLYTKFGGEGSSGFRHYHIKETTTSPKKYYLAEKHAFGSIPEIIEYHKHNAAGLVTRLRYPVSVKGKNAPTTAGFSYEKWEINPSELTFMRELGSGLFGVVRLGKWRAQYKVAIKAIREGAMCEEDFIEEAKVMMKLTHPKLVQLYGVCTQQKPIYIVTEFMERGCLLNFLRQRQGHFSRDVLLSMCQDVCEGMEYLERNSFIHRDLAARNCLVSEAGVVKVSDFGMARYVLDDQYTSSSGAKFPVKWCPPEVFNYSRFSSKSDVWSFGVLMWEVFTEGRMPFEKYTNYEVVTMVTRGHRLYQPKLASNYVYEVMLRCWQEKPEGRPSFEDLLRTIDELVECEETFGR
Nature of the data set: Kinase activity assay, TEC.

Data set [10] has as its target TrkA (Homo sapiens, UniProt P04629). In words: Kinase activity assay, TrkA.
The target of data set [11] is Flt1 (Homo sapiens, UniProt P17948). Nature of the data set: Kinase activity assay, Flt1.
The target of data set [12] is C-Raf (Homo sapiens, UniProt P04049). Nature of the data set: Kinase activity assay, C-Raf.
Chain of C-Raf (P04049 whole entry): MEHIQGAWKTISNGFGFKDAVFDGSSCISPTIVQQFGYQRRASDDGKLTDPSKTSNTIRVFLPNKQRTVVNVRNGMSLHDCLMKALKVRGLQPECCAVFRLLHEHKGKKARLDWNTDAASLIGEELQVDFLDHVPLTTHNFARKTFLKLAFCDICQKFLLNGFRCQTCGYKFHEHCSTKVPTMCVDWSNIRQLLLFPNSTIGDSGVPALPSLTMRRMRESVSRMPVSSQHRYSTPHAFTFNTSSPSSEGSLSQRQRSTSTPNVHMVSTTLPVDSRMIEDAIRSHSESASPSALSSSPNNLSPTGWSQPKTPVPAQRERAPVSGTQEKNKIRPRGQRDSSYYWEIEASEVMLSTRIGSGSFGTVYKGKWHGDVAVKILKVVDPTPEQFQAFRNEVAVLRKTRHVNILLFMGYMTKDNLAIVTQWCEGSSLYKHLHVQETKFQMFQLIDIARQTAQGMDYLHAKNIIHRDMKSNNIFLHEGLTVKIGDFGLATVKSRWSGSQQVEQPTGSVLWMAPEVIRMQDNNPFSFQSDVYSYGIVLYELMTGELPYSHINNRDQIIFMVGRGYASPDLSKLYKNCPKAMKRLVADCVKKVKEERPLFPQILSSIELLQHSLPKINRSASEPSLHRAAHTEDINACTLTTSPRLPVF
Data set [13] has as its target MAP4K4 (Homo sapiens, UniProt O95819). In words: Kinase activity assay, MAP4K4.
In data set [14] the target is PI3Kα (Homo sapiens, UniProt P42336). Nature of the data set: Kinase activity assay, PI3Kα.
Data set [15] concerns the target T2, A-Raf (Homo sapiens, UniProt P10398).
T2 sequence (P10398 1-606): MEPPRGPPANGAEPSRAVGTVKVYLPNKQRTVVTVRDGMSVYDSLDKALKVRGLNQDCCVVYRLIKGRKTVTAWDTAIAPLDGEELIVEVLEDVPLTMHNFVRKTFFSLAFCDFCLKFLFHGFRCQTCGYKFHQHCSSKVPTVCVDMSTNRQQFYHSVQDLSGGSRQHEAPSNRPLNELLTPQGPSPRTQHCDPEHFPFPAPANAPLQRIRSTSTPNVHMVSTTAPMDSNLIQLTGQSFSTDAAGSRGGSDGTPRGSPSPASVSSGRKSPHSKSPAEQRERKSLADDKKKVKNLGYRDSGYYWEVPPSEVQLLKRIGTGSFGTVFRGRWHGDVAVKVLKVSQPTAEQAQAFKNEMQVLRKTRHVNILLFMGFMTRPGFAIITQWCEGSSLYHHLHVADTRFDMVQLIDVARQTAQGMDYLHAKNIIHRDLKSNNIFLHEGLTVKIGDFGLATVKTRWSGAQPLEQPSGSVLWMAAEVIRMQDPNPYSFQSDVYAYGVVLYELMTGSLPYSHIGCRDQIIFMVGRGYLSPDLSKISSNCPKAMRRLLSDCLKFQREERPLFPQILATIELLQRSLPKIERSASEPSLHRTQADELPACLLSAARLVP
In words: Kinase activity assay, A-Raf.

The target in data set [16] is PI3Kγ (Homo sapiens, UniProt P48736). In words: Kinase activity assay, PI3Kγ.
Where [17] appears, read: dose 100, in PEG400:water by oral gavage 10 mL/kg.
Where [18] appears, read: dose 200, in PEG400:water by oral gavage 10 mL/kg.

Where only a bound is given, the exact number is not on record here.

Chain of B-Raf (P15056 whole entry): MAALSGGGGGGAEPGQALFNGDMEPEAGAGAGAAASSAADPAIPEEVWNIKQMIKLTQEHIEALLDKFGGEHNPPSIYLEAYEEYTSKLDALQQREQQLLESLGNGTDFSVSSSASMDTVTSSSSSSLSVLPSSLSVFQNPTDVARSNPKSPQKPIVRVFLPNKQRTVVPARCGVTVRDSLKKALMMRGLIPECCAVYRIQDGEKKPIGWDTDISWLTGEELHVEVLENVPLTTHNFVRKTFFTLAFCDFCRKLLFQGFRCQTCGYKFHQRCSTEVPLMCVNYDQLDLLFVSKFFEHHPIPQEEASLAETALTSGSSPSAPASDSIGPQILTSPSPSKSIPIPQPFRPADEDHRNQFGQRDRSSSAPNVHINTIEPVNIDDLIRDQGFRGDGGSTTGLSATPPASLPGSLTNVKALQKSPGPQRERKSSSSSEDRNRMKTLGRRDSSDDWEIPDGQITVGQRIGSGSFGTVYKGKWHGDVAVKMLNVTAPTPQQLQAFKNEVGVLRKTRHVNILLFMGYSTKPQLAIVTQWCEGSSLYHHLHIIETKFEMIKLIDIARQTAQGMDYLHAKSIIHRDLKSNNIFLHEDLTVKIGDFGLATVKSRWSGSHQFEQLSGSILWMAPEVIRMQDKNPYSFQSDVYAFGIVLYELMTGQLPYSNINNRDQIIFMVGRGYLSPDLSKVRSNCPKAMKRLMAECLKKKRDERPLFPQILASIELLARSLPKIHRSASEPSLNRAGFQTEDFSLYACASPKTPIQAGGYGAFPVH
Chain of TrkA (P04629 33-796): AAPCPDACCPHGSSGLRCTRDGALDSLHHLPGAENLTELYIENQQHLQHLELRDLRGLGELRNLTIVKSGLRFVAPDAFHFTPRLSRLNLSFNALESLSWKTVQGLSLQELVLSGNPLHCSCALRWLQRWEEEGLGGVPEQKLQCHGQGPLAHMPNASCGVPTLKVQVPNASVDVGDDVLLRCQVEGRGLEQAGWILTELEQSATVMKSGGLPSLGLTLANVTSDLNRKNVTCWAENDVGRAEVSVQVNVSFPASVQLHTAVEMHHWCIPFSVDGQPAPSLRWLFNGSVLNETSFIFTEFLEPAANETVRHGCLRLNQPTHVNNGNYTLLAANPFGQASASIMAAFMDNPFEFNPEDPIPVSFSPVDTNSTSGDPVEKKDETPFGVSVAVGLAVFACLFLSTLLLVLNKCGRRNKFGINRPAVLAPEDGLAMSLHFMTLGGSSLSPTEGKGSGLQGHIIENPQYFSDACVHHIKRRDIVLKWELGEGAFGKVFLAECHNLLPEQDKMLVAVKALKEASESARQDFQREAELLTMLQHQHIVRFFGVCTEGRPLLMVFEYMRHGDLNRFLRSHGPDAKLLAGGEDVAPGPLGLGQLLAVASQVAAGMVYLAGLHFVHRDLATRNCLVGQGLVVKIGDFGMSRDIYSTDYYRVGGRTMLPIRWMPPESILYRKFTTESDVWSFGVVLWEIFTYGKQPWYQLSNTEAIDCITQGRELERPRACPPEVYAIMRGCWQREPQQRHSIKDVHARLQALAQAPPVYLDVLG
Chain of B-Raf V600E (P15056 whole entry V600E): as the sequence (P15056 whole entry) above, with V600E counted along it

With `CCCS(=O)(=O)Nc1ccc(F)c(C(=O)c2c[nH]c3ncc(-c4cnc(OC)nc4)cc23)c1F` [P-1496 arginine complex, propane-1-sulfonic acid {2,4-difluoro-3-[5-(2-methoxy-pyrimidin-5-yl)-1H-pyrrolo[2,3-b]pyridine-3-carbonyl]-phenyl}-amide], in [1] (setting [17]), the “AUC∞/dose” value is recorded as 3,620 and the Cmax/dose was 159 (ng/mL)/(mg/kg). For the same compound, in data set [1], the “biopharmaceutical properties, comparison in words” value is listed as “improved biopharmaceutical properties”.

Regarding `CCCS(=O)(=O)Nc1ccc(F)c(C(=O)c2c[nH]c3ncc(-c4cnc(OC)nc4)cc23)c1F` [P-1496 free base, Propane-1-sulfonic acid {2,4-difluoro-3-[5-(2-methoxy-pyrimidin-5-yl)-1H-pyrrolo[2,3-b]pyridine-3-carbonyl]-phenyl}-amide], in data set [1] (setting [17]), the “AUC∞/dose” value is reported as 1,970 and the Cmax/dose was 106 (ng/mL)/(mg/kg).

With `CCCS(=O)(=O)Nc1ccc(F)c(C(=O)c2c[nH]c3ncc(-c4cnc(OC)nc4)cc23)c1F` [P-1496 lysine complex, propane-1-sulfonic acid {2,4-difluoro-3-[5-(2-methoxy-pyrimidin-5-yl)-1H-pyrrolo[2,3-b]pyridine-3-carbonyl]-phenyl}-amide], in [1] (setting [17]), the “AUC∞/dose” value is recorded as 3,210 and the Cmax/dose was 283 (ng/mL)/(mg/kg). In data set [1] (setting [18]), the “AUC∞/dose” value is given as 2,750 and the Cmax/dose was 155 (ng/mL)/(mg/kg). Also, the “biopharmaceutical properties, comparison in words” value in data set [1] is given as “improved biopharmaceutical properties”.

For orientation: IC50 means the concentration that gives 50% inhibition. Consider `Cn1cc(-c2cnc3[nH]cc(C(=O)c4cc(NS(=O)(=O)c5cccc(F)c5)ccc4F)c3c2)cn1` [P-2105, 3-Fluoro-N-{4-fluoro-3-[5-(1-methyl-1H-pyrazol-4-yl)-1H-pyrrolo[2,3-b]pyridine-3-carbonyl]-phenyl}-benzenesulfonamide], for which the concentration for half-maximal inhibition (IC50) in [2], in data set [3], in [4], in data set [5], in [6] and in data set [7] was at most 10 µM each time. In addition, the IC50 in [8], in [9], in [10], in [11], in [12] and in [13] was at most 10 µM in each case.

For `CCCS(=O)(=O)Nc1ccc(F)c(C(=O)c2c[nH]c3ncc(-c4ccc(S(=O)(=O)NC5CC5)cc4)cc23)c1F` [P-2168, N-Cyclopropyl-4-{3-[2,6-difluoro-3-(propane-1-sulfonylamino)-benzoyl]-1H-pyrrolo[2,3-b]pyridin-5-yl}-benzenesulfonamide], the IC50 in data set [2], in data set [3], in [4], in [5], in data set [6] and in data set [7] was at most 10 µM throughout. Further, the IC50 in data set [8], in data set [10] and in data set [12] was at most 10 µM each time.

As for `CCCS(=O)(=O)Nc1ccc(F)c(C(=O)c2c[nH]c3ncc(-c4cn[nH]c4)cc23)c1F` [P-2174, Propane-1-sulfonic acid {2,4-difluoro-3-[5-(1H-pyrazol-4-yl)-1H-pyrrolo[2,3-b]pyridine-3-carbonyl]-phenyl}-amide], the 50% inhibitory concentration (IC50) in [2], in data set [3], in data set [4], in [5], in [6] and in data set [7] was at most 10 µM throughout. In addition, the half-inhibitory concentration (IC50) in [8], in data set [9], in [10] and in data set [14] was at most 10 µM each time.

On to `CCCS(=O)(=O)Nc1ccc(F)c(C(=O)c2c[nH]c3ncc(-c4ccn[nH]4)cc23)c1F` [P-2176], for which the IC50 in data set [2], in [3], in data set [4], in data set [5], in data set [6] and in data set [7] was at most 10 µM each time. Besides, the half-inhibitory concentration (IC50) in data set [8], in data set [10] and in data set [13] was at most 10 µM throughout.

With `CCCS(=O)(=O)Nc1ccc(F)c(C(=O)c2c[nH]c3ncc(-c4ccc(C(N)=O)nc4)cc23)c1F` [P-2220, 5-{3-[2,6-Difluoro-3-(propane-1-sulfonylamino)-benzoyl]-1H-pyrrolo[2,3-b]pyridin-5-yl}-pyridine-2-carboxylic acid amide], the 50% inhibitory concentration (IC50) in data set [2], in data set [3], in data set [6], in data set [7], in data set [8] and in data set [15] was at most 10 µM each time. Besides, the 50% inhibitory concentration (IC50) in [12], in [14], in data set [16] and in [13] was at most 10 µM throughout.

Consider `CCCCS(=O)(=O)Nc1ccc(F)c(C(=O)c2c[nH]c3ncc(-c4cnn(C)c4)cc23)c1F` [P-2302, Butane-1-sulfonic acid {2,4-difluoro-3-[5-(1-methyl-1H-pyrazol-4-yl)-1H-pyrrolo[2,3-b]pyridine-3-carbonyl]-phenyl}-amide], for which the IC50 in data set [2], in [3], in data set [4], in data set [5], in data set [6] and in data set [7] was at most 10 µM throughout. The IC50 in data set [8], in data set [9], in data set [10] and in [11] was at most 10 µM in each case.

Regarding `Cn1cc(-c2cnc3[nH]cc(C(=O)c4c(F)ccc(NS(=O)(=O)C(F)(F)F)c4F)c3c2)cn1` [P-2345, N-{2,4-Difluoro-3-[5-(1-methyl-1H-pyrazol-4-yl)-1H-pyrrolo[2,3-b]pyridine-3-carbonyl]-phenyl}-C,C,C-trifluoro-methanesulfonamide], the half-maximal inhibitory concentration (IC50) in [2], in [3], in data set [4], in data set [6], in [7] and in data set [8] was at most 10 µM each time. The same compound displayed a half-inhibitory concentration (IC50) in data set [10] of at most 10 µM.

Source of the values: US20120122860A1, “SOLID FORMS OF SULFONAMIDES AND AMINO ACIDS” (Plexxikon, Inc., priority 2009, published 2012).
